Data reported in patent publication US4939137A, “Ring-fused thienopyrimidinedione derivatives” (Ortho Pharmaceutical Corporation, priority 1989, dated 1990).

Legend:
[1] = test system: spontaneously hypertensive rats (SHR); experiment: Antihypertensive Activity: Spontaneously Hypertensive Rat (SHR test); type: in vivo, rat (male spontaneously hypertensive); details: Rattus norvegicus, p.o. or i.v., read-out: SHR TEST: change in blood pressure (delta % of control); for change in vivo at 5 mg/kg: dose 5 mpk
Description: Mean arterial pressure and heart rate were monitored from directly cannulated animals. Compounds were administered p.o. or i.v. and blood pressure was recorded for various time intervals post dosing.
Blood pressure changes (expressed as change in control pressure and reported as delta % of control for each animal) were analyzed statistically using a one way analysis of variance with a Dunnett's test. P values less than 0.05 were considered significant.

[2] = molecular target: alpha-1 adrenergic receptor; experiment: Brain Alpha-1 Radioreceptor Assay (3H-prazosin); details: guinea pig brain membranes, 30 minutes, 30° C., read-out: RECEPTOR BINDING ALPHA-1 (IC50)
Description: Membrane fragments were prepared from the brains of mature female guinea pigs after removal of the corpus striata. The alpha-1 adrenergic receptor sites were labeled with ^3 H-prazosin. Membrane fragments, ^3 H-prazosin and an unlabeled test compound were incubated for 30 minutes at 30° C. Compound bound to the receptor site was separated from the remaining unbound radioligand by vacuum filtration. Specific binding was determined by the difference between total counts bound and counts bound in the presence of 10-^5 M phentolamine.

5HT2 receptor = molecular target: T1, 5HT2 receptor (Rattus norvegicus, UniProt P14842); experiment: Brain Serotonin 5HT2 Radioreceptor Assay (3H-ketanserin); type: binding; details: for IC50: rat frontal cortex membranes, 15 minutes, 37° C., read-out: RECEPTOR BINDING 5HT-2 (IC50); for inhibition at 1 µM: 0.25 h, @ 10^-6, rat frontal cortex membranes, read-out: RECEPTOR BINDING 5HT-2, % @ 10^-6
T1 construct: Membrane fragments were prepared from the frontal cortex dissected from brains obtained from female rats; from tissue; host or cells: frontal cortex, female rats
Description: (§1) Membrane fragments were prepared from the frontal cortex dissected from brains obtained from female rats (~150 g). The 5HT2 sites were labeled with ^3 H-ketanserin. Membrane fragments, ^3 H-ketanserin and an unlabeled test compound were incubated for 15 minutes at 37° C. Compound bound to the receptor site was separated from the remaining unbound compound by vacuum filtration.
The ability of a nonlabeled compound to compete with ^3 H-ketanserin for binding sites was a measure of the compound's affinity for the 5HT2 receptor. Specific binding was determined by the difference between total counts bound and counts bound in the presence of 10^-6 M methysergide.
Data are presented as the IC50, the concentration of nonlabeled compound required to displace 50% of the ^3 H-ketanserin specifically bound to 5HT2 binding sites.

5HT1A receptor = molecular target: T2, 5HT1A receptor (Rattus norvegicus, UniProt P19327); experiment: Brain Serotonin 5HT1A Radioreceptor Assay (3H-80H-DPAT); type: binding; details: for IC50: rat frontal cortex membranes, 10 minutes, 37° C., read-out: RECEPTOR BINDING 5HT-1A (IC50); for inhibition at 1 µM: @ 10^-6, rat frontal cortex membranes, read-out: RECEPTOR BINDING 5HT-1A, % @ 10^-6
T2 construct: Membrane fragments were prepared from the frontal cortex dissected from brains obtained from female rats; from tissue; host or cells: frontal cortex, female rats
T2 sequence (P19327 1-422): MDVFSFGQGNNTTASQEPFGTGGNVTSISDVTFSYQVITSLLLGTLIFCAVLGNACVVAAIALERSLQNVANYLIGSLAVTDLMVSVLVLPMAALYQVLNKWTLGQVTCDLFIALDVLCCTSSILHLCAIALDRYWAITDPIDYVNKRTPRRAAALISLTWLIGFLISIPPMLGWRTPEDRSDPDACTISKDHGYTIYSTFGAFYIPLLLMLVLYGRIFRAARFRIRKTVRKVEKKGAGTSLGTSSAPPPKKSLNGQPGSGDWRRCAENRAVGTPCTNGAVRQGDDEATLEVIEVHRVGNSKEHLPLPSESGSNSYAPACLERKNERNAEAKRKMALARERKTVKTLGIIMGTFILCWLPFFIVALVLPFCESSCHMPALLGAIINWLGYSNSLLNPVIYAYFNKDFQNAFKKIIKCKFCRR
Description: as §1, with “The 5HT1A” for “The 5HT2”, “^3 H-80H-dipropylaminotetralin (^3 H-80H-DPAT).” for “^3 H-ketanserin.”, “^3 H-80H-DPAT” for “^3 H-ketanserin”, “for 10” for “for 15”, “C. The tubes were then placed in an ice bath for an additional 10 minutes.” for “C.”
The ability of a nonlabeled compound to compete with ^3 H-80H-DPAT for binding sites was a measure of the compound's affinity for the 5HT1A receptor. Specific binding was determined by the difference between total counts bound and counts bound in the presence of 10^-5 M serotonin.
Data are presented at the IC50, the concentration of nonlabeled compound required to displace 50% of the ^3 H-80H-DPAT specifically bound to 5HT1A binding sites.

T1 sequence (P14842 whole entry, the tested form may be a part): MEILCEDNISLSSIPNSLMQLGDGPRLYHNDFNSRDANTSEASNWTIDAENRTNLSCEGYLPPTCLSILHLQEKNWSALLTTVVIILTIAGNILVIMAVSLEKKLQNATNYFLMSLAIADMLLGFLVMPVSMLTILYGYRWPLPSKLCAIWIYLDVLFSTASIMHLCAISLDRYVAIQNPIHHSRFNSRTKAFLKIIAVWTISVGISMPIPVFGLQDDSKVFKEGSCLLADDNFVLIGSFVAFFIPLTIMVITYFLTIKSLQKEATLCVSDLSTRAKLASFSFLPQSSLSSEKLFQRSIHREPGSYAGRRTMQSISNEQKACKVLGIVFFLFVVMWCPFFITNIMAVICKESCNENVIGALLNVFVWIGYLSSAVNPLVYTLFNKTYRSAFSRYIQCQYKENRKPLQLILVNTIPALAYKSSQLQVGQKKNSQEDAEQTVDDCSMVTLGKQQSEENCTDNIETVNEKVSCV

Structure (SMILES)	change in vivo at 5 mg/kg [1]	IC50 [2]	IC50 (5HT2 receptor)	IC50 (5HT1A receptor)	also measured
O=C1CCn2c(=O)n(CCN3CCN(c4ccc(F)cc4)CC3)c(=O)c3csc1c32 [Example 9, 3,4,5,7,8,9-Hexahydro-4-[2-[4-(4-fluorophenyl)piperazin-1-yl]ethyl]thieno[4,3,2-de]pyrido[1,2-c]pyrimidine-3,5,9-trione]	-21.5%				
COc1ccccc1N1CCN(CCn2c(=O)c3scc4c3n(c2=O)CCC4=O)CC1 [Example 14, 7.8-Dihydro-4-[2-[4-(2-methoxyphenyl)-piperazin-1-yl]ethyl]thieno[2,3,4-de]pyrido[1,2-c]pyrimidine-3,5,9-trione]	-30%	6 nM	1500 nM	66 nM	
COc1ccccc1N1CCN(CCn2c(=O)c3csc4c3n(c2=O)CCCC4=O)CC1 [Example 15, 4,7,8,9-Tetrahydro-4-[2-[4-(2-methoxyphenyl)-piperazin-1-yl]ethyl]thieno[4,3,2-de]pyrimido[3,4-a]azepine-3,5,10-trione]	-29.8%				
O=C1CCn2c(=O)n(CCN3CCC(C(=O)c4ccc(F)cc4)CC3)c(=O)c3csc1c32 [Example 19, 4-[2-[4-(4-Fluorobenzoyl)piperidin-1-yl]ethyl]-3,4,5,7,8,9-hexahydrothieno[4,3,2-de]pyrido[1,2-c]pyrimidine-3,5,9-trione]		1000 nM	1 nM		inhibition at 1 µM (5HT1A receptor): 35%
O=C1CCn2c(=O)n(CCN3CCC(=C(c4ccc(F)cc4)c4ccc(F)cc4)CC3)c(=O)c3csc1c32 [Example 20, 4-[2-[4-[Bis(4-fluorophenyl)methylene]piperidin-1-yl]ethyl]-3,4,5,7,8,9-hexahydrothieno[4,3,2-de]pyrimidine-3,5,9-trione]		22000 nM	180 nM		inhibition at 1 µM (5HT1A receptor): 47%
COc1ccccc1N1CCN(CCn2c(=O)c3csc4c3n(c2=O)CCCC4O)CC1 (stereo not drawn) [Example 22, 10-Hydroxy-4,7,8,9-tetrahydro-4-[2-[4-(2-methoxyphenyl)piperazin-1-yl]ethyl]thieno[4,3,2-de]pyrimido[3,4-a]azepine-3,5-dione]		0.4 nM	270 nM	62 nM	
COc1ccccc1N1CCN(CCn2c(=O)c3c(C)sc4c3n(c2=O)CCC4O)CC1 (stereo not drawn) [Example 23, 3,4,5,7,8,9-Hexahydro-9-hydroxy-4-[2-[4-(2-methoxyphenyl)piperazin-1-yl]ethyl]-2-methyl-thieno[4,3,2-de]pyrido[1,2-c]pyrimidine-3,5-dione]	-27.4%				
CON=C1CCCn2c(=O)n(CCN3CCN(c4ccccc4OC)CC3)c(=O)c3csc1c32 [Example 27, 4,7,8,9-Tetrahydro-10-methoxyimino-4-[2-[4-(2-methoxyphenyl)piperazin-1-yl]ethyl]thieno[4,3,2-de]pyrimido[3,4-a]azepine-3,5-dione]		0.14 nM		70 nM	inhibition at 1 µM (5HT2 receptor): 11%
CON=C1CCn2c(=O)n(CCN3CCN(c4ccccc4OC)CC3)c(=O)c3c(C)sc1c32 [Example 28, 3,4,5,7,8,9-Hexahydro-9-methoxyimino-4-[2-[4-(2-methoxyphenyl)piperazin-1-yl]ethyl]-2-methyl-thieno[4,3,2-de]pyrido[1,2-c]pyrimidine-3,5-dione]		< 1 nM	150 nM	20 nM	
CON=C1CCn2c(=O)n(CCCN3CCN(c4ccccc4OC)CC3)c(=O)c3csc1c32 [Example 29, 3,4,5,7,8,9-Hexahydro-9-methoxyimino-4-[3-[4-(2-methoxyphenyl)piperazin-1-yl]propyl]thieno-[4,3,2-de]pyrido[1,2-c]pyrimidine-3,5-dione]		26 nM			inhibition at 1 µM (5HT2 receptor): 34.3%; inhibition at 1 µM (5HT1A receptor): 5.2%
COc1ccccc1N1CCN(CCn2c(=O)c3csc4c3n(c2=O)CCC4OC(=O)C(C)C)CC1 (stereo not drawn) [Example 33, 3,4,5,7,8,9-Hexahydro-9-(2-methylpropanoyloxy)-4-[2-[4-(2-methoxyphenyl)piperazin-1-yl]ethyl]thieno[4,3,2-de]pyrido[1,2-c]pyrimidine-3,5-dione]	-32%				
COc1ccccc1N1CCN(CCn2c(=O)c3csc4c3n(c2=O)CCC4OC(=O)C(C)(C)C)CC1 (stereo not drawn) [Example 34, 3,4,5,7,8,9-Hexahydro-4-[2-[4-(2-methoxyphenyl)piperazin-1-yl]ethyl]-9-[(2,2-dimethyl)propanoyloxy]thieno[4,3,2-de]pyrido[1,2-c]pyrimidine-3,5-dione]	-26%				
COc1ccc(C(=O)OC2CCn3c(=O)n(CCN4CCN(c5ccccc5OC)CC4)c(=O)c4csc2c43)cc1 (stereo not drawn) [Example 36, 3,4,5,7,8,9-Hexahydro-9-(4-methoxy)benzoyloxy-4-[2-[4-(2-methoxyphenyl)piperazin-1-yl]ethyl]thieno[4,3,2-de]pyrido[1,2-c]pyrimidine-3,5-dione]	-14%				
COc1ccccc1N1CCN(CCn2c(=O)c3csc4c3n(c2=O)CCC4OC(=O)c2ccc(Cl)cc2)CC1 (stereo not drawn) [Example 37, 9-(4-Chlorobenzoyloxy)-3,4,5,7,8,9-hexahydro-4-[2-[4-(2-methoxyphenyl)piperazin-1-yl]ethyl]thieno[4,3,2-de]pyrido[1,2-c]pyrimidine-3,5-dione]	-30.2%				
COc1ccccc1N1CCN(CCn2c(=O)c3csc4c3n(c2=O)CCC4N)CC1 (stereo not drawn) [Example 38, 9-Amino-3,4,5,7,8,9-hexahydro-4-[2-[4-(2-methoxyphenyl)piperazin-1-yl]ethyl]thieno[4,3,2-de]pyrido[1,2-c]pyrimidine-3,5-dione]		10 nM	800 nM	50 nM	change in vivo at 2.5 mg/kg ([1]; dose 2.5 mpk): -30.1%
COc1ccccc1N1CCN(CCn2c(=O)c3csc4c3n(c2=O)CCC4NC(C)=O)CC1 (stereo not drawn) [Example 39, 9-Acetylamino-3,4,5,7,8,9-hexahydro-4-[2-[4-(2-methoxyphenyl)piperazin-1-yl]ethyl]thieno[4,3,2-de]pyrido[1,2-c]pyrimidine-3,5-dione]		0.35 nM	750 nM	580 nM	
COc1ccccc1N1CCN(CCn2c(=O)c3csc4c3n(c2=O)CCC4NC(=O)c2ccccc2)CC1 (stereo not drawn) [Example 40, 9-Benzoylamino-3,4,5,7,8,9-hexahydro-4-[2-[4-(2-methoxyphenyl)piperazin-1-yl]ethyl]thieno[4,3,2-de]pyrido[1,2-c]pyrimidine-3,5-dione]		3 nM	2500 nM		inhibition at 10 µM (5HT1A receptor; @ 10^-5, rat frontal cortex membranes, read-out: RECEPTOR BINDING 5HT-1A, % @ 10^-5): 45%
CON=C1CCn2c(=O)n(CCN3CCN(c4cccc(Cl)c4)CC3)c(=O)c3csc1c32 [Example 41, 4-[2-[4-(3-Chlorophenyl)piperazin-1-yl]ethyl]-3,4,5,7,8,9-hexahydro-9-methoxyiminothieno[4,3,2-de]pyrido[1,2-c]pyrimidine-3,5-dione]		40000 nM	1000 nM	1000 nM	
O=C1CCn2c(=O)n(CCCCN3CCC(C(=O)c4ccc(F)cc4)CC3)c(=O)c3csc1c32 [Example 42, 4-[4-[4-(4-Fluorobenzoyl)piperidin-1-yl]butyl]-3,4,5,7,8,9-hexahydrothieno[4,3,2-de]pyrido[1,2-c]pyrimidine-3,5,9-trione]		540 nM	630 nM	400 nM	
